According to US4110327A, “2,3 Diketo-piperazinocarbonylamino alkanoic acids and derivatives” (Toyama Chemical Co., Ltd., priority 1974, dated 1978):
Values after ≈ are worked out from the molar mass of the structure shown.

Legend:
Proteus mirabilis = test: MIC against clinical isolates; type: cell-based; conditions: clinical isolate, unit assumed
β-lactamase = test: Resistant activity against β-lactamase, iodometric assay; type: biochemical, Pseudomonas aeruginosa GN 238; conditions: relative to Potassium Penicillin G = 100
Protocol: (3) Resistant activity against β-lactamase, Pseudomonas aergionan GN 238:
The resistant activity of each compound against β-lactamase was measured in the manner described below.
β-Lactamase was prepared from Pseudomonas aeruginosa GN 238. This microorganism was cultured in 100 ml of a medium containing 2 g of yeast extract, 10 g of polypeptone, 2 g of glucose, 7 g of disodium hydrogen phosphate, 2 g of potassium dihydrogen phosphate, 1.2 g of ammonium sulfate and 0.4 g of magnesium sulfate, per liter, in a 500-ml Erlenmeyer flask for 6 hrs. at 37° C with shaking. The resulting cells were collected by centrifugation (5,000 r.p.m. × 10 min.), washed three times with 0.1 M phosphate buffer (pH 7.0). Subsequently, the cells were subjected to sonication (20 KHz, 20 min.) and then centrifuged at 15,000 r.p.m. for 60 min. By using the supernatant of enzyme fluid, the resistance of each compound against β-lactamase was determined by the iodometric assay method. Each numeral shown in Table 7 is a relative activity value calculated by assuming as 100 the activity of the control Potassium Penicillin G.

Proteus morganii = test: MIC against clinical isolates; type: cell-based; conditions: clinical isolate, unit assumed
Proteus vulgaris = test: MIC against clinical isolates; type: cell-based; conditions: clinical isolate, unit assumed
Salmonella typhi-murium = test: MIC against clinical isolates; type: cell-based; conditions: unit assumed
Salmonella typhi = test: MIC against clinical isolates; type: cell-based; conditions: unit assumed
Proteus rettgeri = test: MIC against clinical isolates; type: cell-based; conditions: clinical isolate, unit assumed
Shigella sonnei = test: MIC against clinical isolates; type: cell-based; conditions: clinical isolate JS 11232; unit assumed
Protocol: (§1) The minimum inhibitory concentrations (MIC) was determined by the plate method disclosed in "Chemotherapy" (Japan), Vol. 16, (1968), pages 98 - 99. The culture medium used was a Heart infusion agar (pH 7.4). The number of the cells per plate used in the inoculum as 10^4 (10^6 cells/ml).
(§2) MIC was determined in the same manner as in the preceding paragraph (1).

Shigella flexneri = test: MIC against clinical isolates; type: cell-based; conditions: clinical isolate JS 11215; unit assumed
Protocol: as §1, §2

Proteus vulgaris 3027 = test: MIC against standard strain, plate method; type: cell-based; conditions: Proteus vulgaris 3027, standard strain; unit assumed
Procedure, shortened: (§3)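 Plate-method MIC. Medium: heart infusion agar, pH 7.4. Inoculum: 10^4 cells per plate (10^6 cells/ml).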

Escherichia coli NIHJ = test: MIC against standard strain, plate method; type: cell-based; conditions: unit assumed
Procedure, shortened: as §3

[1] = tested on: Staphylococcus aureus 209p; test: MIC against standard strain, plate method; type: cell-based; conditions: unit assumed
Procedure, shortened: as §3

Pseudomonas aeruginosa = test: MIC against clinical isolates; type: cell-based; conditions: unit assumed
Escherichia coli = test: MIC against clinical isolates; type: cell-based; conditions: unit assumed
Klebsiella pneumoniae [2] = test: MIC against clinical isolates; type: cell-based; conditions: unit assumed
Staphylococcus aureus = test: MIC against clinical isolates; type: cell-based; conditions: unit assumed
[3] = tested on: Pseudomonas aeruginosa I.F.O.; test: MIC against standard strain, plate method; type: cell-based; conditions: unit assumed
Procedure, shortened: as §3

Klebsiella pneumoniae [4] = test: MIC against standard strain, plate method; type: cell-based; conditions: unit assumed
Procedure, shortened: as §3

[5] = clinical isolate GN (number not given; Table 5-3)

Question: Which MIC (Proteus mirabilis) does the source give for `CN1CCN(C(=O)N[C@@H](C(=O)N[C@@H]2C(=O)N3[C@@H]2SC(C)(C)[C@@H]3C(=O)O)c2ccccc2)C(=O)C1=O` (single isomer, unassigned) [compound 37] here?
Answer: 0.79 µg/mL (≈ 1.57 µM)

Question: What about the Relative activity (β-lactamase) of the same compound?
Answer: 15%

Question: And the MIC (Proteus morganii)?
Answer: 0.79 µg/mL (≈ 1.57 µM)

Question: And the MIC (Proteus vulgaris)?
Answer: < 0.4 µg/mL

Question: What about the MIC (Salmonella typhi-murium; clinical isolate SL 858) of the same compound?
Answer: 12.5 µg/mL (≈ 24.8 µM)

Question: What about the MIC (Salmonella typhi-murium; clinical isolate SL 2136) of the same compound?
Answer: > 200 µg/mL

Question: And the MIC (Salmonella typhi; clinical isolate SL 819)?
Answer: 6.25 µg/mL (≈ 12.4 µM)

Question: What about the MIC (Salmonella typhi; clinical isolate SL 2169) of the same compound?
Answer: 3.13 µg/mL (≈ 6.22 µM)

Question: What about the MIC (Proteus rettgeri) of the same compound?
Answer: 25 µg/mL (≈ 49.6 µM)

Question: What about the MIC (Shigella sonnei) of the same compound?
Answer: 100 µg/mL (≈ 199 µM)

Question: And the MIC (Shigella flexneri)?
Answer: > 200 µg/mL

Question: And the MIC (Proteus vulgaris 3027)?
Answer: < 1.57 µg/mL

Question: What about the MIC (Escherichia coli NIHJ) of the same compound?
Answer: < 1.57 µg/mL

Question: And the MIC [1]?
Answer: < 1.57 µg/mL

Question: And the MIC (Pseudomonas aeruginosa; clinical isolate GN 383)?
Answer: 25 µg/mL (≈ 49.6 µM)

Question: And the MIC (Pseudomonas aeruginosa; clinical isolate GN 1035)?
Answer: 50 µg/mL (≈ 99.3 µM)

Question: What about the MIC (Pseudomonas aeruginosa; clinical isolate GN 2565) of the same compound?
Answer: 25 µg/mL (≈ 49.6 µM)

Question: And the MIC (Pseudomonas aeruginosa; clinical isolate GN 2987)?
Answer: 25 µg/mL (≈ 49.6 µM)

Question: What about the MIC (Pseudomonas aeruginosa; [5]) of the same compound?
Answer: 50 µg/mL (≈ 99.3 µM)

Question: And the MIC (Pseudomonas aeruginosa; clinical isolate S-1)?
Answer: 200 µg/mL (≈ 397 µM)

Question: What about the MIC (Pseudomonas aeruginosa; clinical isolate S-2) of the same compound?
Answer: 25 µg/mL (≈ 49.6 µM)

Question: And the MIC (Pseudomonas aeruginosa; clinical isolate S-3)?
Answer: 50 µg/mL (≈ 99.3 µM)

Question: And the MIC (Pseudomonas aeruginosa; clinical isolate S-4)?
Answer: 100 µg/mL (≈ 199 µM)

Question: What about the MIC (Escherichia coli; clinical isolate GN 3465) of the same compound?
Answer: 200 µg/mL (≈ 397 µM)

Question: What about the MIC (Escherichia coli; clinical isolate GN 3611) of the same compound?
Answer: > 200 µg/mL

Question: And the MIC (Escherichia coli; clinical isolate K-3)?
Answer: > 200 µg/mL

Question: What about the MIC (Klebsiella pneumoniae [2]; clinical isolate GN 3850) of the same compound?
Answer: 25 µg/mL (≈ 49.6 µM)

Question: What about the MIC (Klebsiella pneumoniae [2]; clinical isolate GN 4081) of the same compound?
Answer: 200 µg/mL (≈ 397 µM)

Question: What about the MIC (Klebsiella pneumoniae [2]; clinical isolate GN 4117) of the same compound?
Answer: 100 µg/mL (≈ 199 µM)

Question: What about the MIC (Staphylococcus aureus; clinical isolate F-2) of the same compound?
Answer: 1.57 µg/mL (≈ 3.12 µM)

Question: And the MIC (Staphylococcus aureus; clinical isolate F-5)?
Answer: > 200 µg/mL

Question: What about the MIC (Staphylococcus aureus; clinical isolate MS 8619) of the same compound?
Answer: 0.79 µg/mL (≈ 1.57 µM)

Question: Which results are given for `CCCN1CCN(C(=O)N[C@@H](C(=O)N[C@@H]2C(=O)N3[C@@H]2SC(C)(C)[C@@H]3C(=O)O)c2ccccc2)C(=O)C1=O` (single isomer, unassigned) [compound 38]?
Answer: MIC (Proteus mirabilis): < 0.4 µg/mL; Relative activity (β-lactamase): 15%; MIC (Proteus morganii): < 0.4 µg/mL; MIC (Proteus vulgaris): < 0.4 µg/mL; MIC (Salmonella typhi-murium; clinical isolate SL 858): 3.13 µg/mL (≈ 5.89 µM); MIC (Salmonella typhi-murium; clinical isolate SL 2136): 200 µg/mL (≈ 376 µM); MIC (Salmonella typhi; clinical isolate SL 819): 1.57 µg/mL (≈ 2.95 µM); MIC (Salmonella typhi; clinical isolate SL 2169): 0.79 µg/mL (≈ 1.49 µM); MIC (Proteus rettgeri): 12.5 µg/mL (≈ 23.5 µM); MIC (Shigella sonnei): 50 µg/mL (≈ 94.1 µM); MIC (Shigella flexneri): 25 µg/mL (≈ 47 µM); MIC (Proteus vulgaris 3027): 0.4 µg/mL (≈ 0.752 µM); MIC [3]: 6.25 µg/mL (≈ 11.8 µM); MIC (Escherichia coli NIHJ): < 0.1 µg/mL; MIC [1]: 0.4 µg/mL (≈ 0.752 µM); MIC (Pseudomonas aeruginosa; clinical isolate GN 221): 6.25 µg/mL (≈ 11.8 µM); MIC (Pseudomonas aeruginosa; clinical isolate GN 383): 6.25 µg/mL (≈ 11.8 µM); MIC (Pseudomonas aeruginosa; clinical isolate GN 1035): 12.5 µg/mL (≈ 23.5 µM); MIC (Pseudomonas aeruginosa; clinical isolate GN 2565): 12.5 µg/mL (≈ 23.5 µM); MIC (Pseudomonas aeruginosa; clinical isolate GN 2987): 6.25 µg/mL (≈ 11.8 µM); MIC (Pseudomonas aeruginosa; [5]): 6.25 µg/mL (≈ 11.8 µM); MIC (Pseudomonas aeruginosa; clinical isolate S-1): 12.5 µg/mL (≈ 23.5 µM); MIC (Pseudomonas aeruginosa; clinical isolate S-2): 12.5 µg/mL (≈ 23.5 µM); MIC (Pseudomonas aeruginosa; clinical isolate S-3): 12.5 µg/mL (≈ 23.5 µM); MIC (Pseudomonas aeruginosa; clinical isolate S-4): 12.5 µg/mL (≈ 23.5 µM); MIC (Escherichia coli; clinical isolate GN 3435): 0.79 µg/mL (≈ 1.49 µM); MIC (Escherichia coli; clinical isolate GN 3465): 50 µg/mL (≈ 94.1 µM); MIC (Escherichia coli; clinical isolate GN 3611): > 200 µg/mL; MIC (Escherichia coli; clinical isolate K-3): > 200 µg/mL; MIC (Escherichia coli; clinical isolate K-4): 0.79 µg/mL (≈ 1.49 µM); MIC (Klebsiella pneumoniae [2]; clinical isolate GN 3850): 6.25 µg/mL (≈ 11.8 µM); MIC (Klebsiella pneumoniae [2]; clinical isolate GN 4081): 50 µg/mL (≈ 94.1 µM); MIC (Klebsiella pneumoniae [2]; clinical isolate GN 4117): 50 µg/mL (≈ 94.1 µM); MIC (Staphylococcus aureus; clinical isolate F-1): 6.25 µg/mL (≈ 11.8 µM); MIC (Staphylococcus aureus; clinical isolate F-3): 0.79 µg/mL (≈ 1.49 µM); MIC (Staphylococcus aureus; clinical isolate F-4): 6.25 µg/mL (≈ 11.8 µM); MIC (Staphylococcus aureus; clinical isolate F-5): > 200 µg/mL; MIC (Staphylococcus aureus; clinical isolate MS 8619): 0.79 µg/mL (≈ 1.49 µM); MIC (Staphylococcus aureus; clinical isolate MS 8713): 6.25 µg/mL (≈ 11.8 µM)

Question: What does the source list for `CC1(C)S[C@@H]2[C@H](NC(=O)C(C(=O)O)c3ccccc3)C(=O)N2[C@H]1C(=O)O` (stereo partly shown) [Sodium Carbenicillin, SodiumCarbenicillin, reference compound]?
Answer: MIC (Proteus mirabilis): 0.8 µg/mL; Relative activity (β-lactamase): 116%; MIC (Proteus morganii): 0.4 µg/mL; MIC (Proteus vulgaris): 0.8 µg/mL; MIC (Proteus rettgeri): > 200 µg/mL; MIC (Proteus vulgaris 3027): < 1.57 µg/mL; MIC [3]: 50 µg/mL; MIC (Klebsiella pneumoniae [4]): > 200 µg/mL; MIC (Escherichia coli NIHJ): < 1.57 µg/mL; MIC [1]: < 1.57 µg/mL; MIC (Pseudomonas aeruginosa; clinical isolate GN 82): 100 µg/mL; MIC (Pseudomonas aeruginosa; clinical isolate GN 163): 50 µg/mL; MIC (Pseudomonas aeruginosa; clinical isolate GN 221): 25 µg/mL; MIC (Pseudomonas aeruginosa; clinical isolate GN 376): 50 µg/mL; MIC (Pseudomonas aeruginosa; clinical isolate GN 383): 30 µg/mL; MIC (Pseudomonas aeruginosa; clinical isolate GN 1035): > 200 µg/mL; MIC (Pseudomonas aeruginosa; clinical isolate GN 1091): 100 µg/mL; MIC (Pseudomonas aeruginosa; clinical isolate GN 2565): 200 µg/mL; MIC (Pseudomonas aeruginosa; clinical isolate GN 2987): 50 µg/mL; MIC (Pseudomonas aeruginosa; [5]): 50 µg/mL; MIC (Pseudomonas aeruginosa; clinical isolate S-1): 200 µg/mL; MIC (Pseudomonas aeruginosa; clinical isolate S-2): 200 µg/mL; MIC (Pseudomonas aeruginosa; clinical isolate S-3): 200 µg/mL; MIC (Pseudomonas aeruginosa; clinical isolate S-4): 200 µg/mL; MIC (Escherichia coli; clinical isolate GN 3465): > 200 µg/mL; MIC (Escherichia coli; clinical isolate GN 3611): > 200 µg/mL; MIC (Escherichia coli; clinical isolate K-3): > 200 µg/mL; MIC (Klebsiella pneumoniae [2]; clinical isolate GN 917): > 200 µg/mL; MIC (Klebsiella pneumoniae [2]; clinical isolate GN 4081): > 200 µg/mL; MIC (Klebsiella pneumoniae [2]; clinical isolate GN 4117): > 200 µg/mL; MIC (Staphylococcus aureus; clinical isolate F-5): > 200 µg/mL; MIC (Staphylococcus aureus; clinical isolate MS 8619): 0.79 µg/mL
